{
  "source": "patent US9499551B2",
  "about": "“Substituted pyrrolo[2,3-b]pyridines for treating cancer or inflammatory diseases” (Confluence Life Sciences, Inc., priority 2014, dated 2016)",
  "key": {"TAK1-TAB1": {"molecular_target": "T1, TAK1-TAB1 (Homo sapiens, UniProt O43318)", "T1 sequence (O43318 with tags, fused parts or gaps limits assumed)": "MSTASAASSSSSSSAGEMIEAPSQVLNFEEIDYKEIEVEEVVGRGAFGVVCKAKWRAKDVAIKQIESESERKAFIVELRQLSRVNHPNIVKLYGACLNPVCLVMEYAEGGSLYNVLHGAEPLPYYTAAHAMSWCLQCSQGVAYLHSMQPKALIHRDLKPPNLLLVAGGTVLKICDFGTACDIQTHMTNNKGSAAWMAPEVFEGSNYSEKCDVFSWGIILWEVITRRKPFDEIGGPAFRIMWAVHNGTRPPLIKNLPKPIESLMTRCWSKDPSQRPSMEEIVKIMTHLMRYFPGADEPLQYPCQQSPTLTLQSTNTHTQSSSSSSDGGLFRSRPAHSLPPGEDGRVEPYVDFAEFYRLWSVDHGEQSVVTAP", "test": "TAK1-TAB1 binding inhibitory potency (LanthaScreen competitive binding assay, kinase tracer-236)", "conditions": "10 nM TAK1-TAB1, 100 nM kinase tracer-236; read-out: TAK1-Tab Inhibition IC50", "procedure,_shortened": "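Compounds were tested for TAK1-TAB1 binding in a 384-well LanthaScreen competitive FRET assay. TAK1-TAB1 (10 nM) and Eu-anti-his antibody (2 nM) were preincubated with compound for two hours before adding 100 nM Alexa Fluor 647 kinase tracer-236. The buffer was 20 mM HEPES pH 7.5, 10 mM MgCl2, 0.01% BSA, 0.0005% Tween-20 and 2% DMSO. IC50 came from 4-parameter logistic fits of emission ratio over an 11-point series from 20 μM to 0.34 nM.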"}, "[1]": {"system": "IL-6 Production in Human Peripheral Blood Mononuclear Cells (PBMC)", "test": "LPS stimulated IL-6 production in PBMC cells", "type": "cell-based", "conditions": "read-out: IL-6 Production Inhibition IC50"}},
  "data": [
    {"smiles": "CC(C)(O)CN1CCN(c2cnc3[nH]cc(/C=C/C(N)=O)c3c2)CC1", "note": "[Example 289, (E)-3-(5-(4-(2-hydroxy-2-methylpropyl)piperazin-1-yl)-1H-pyrrolo[2,3-b]pyridin-3-yl)acrylamide]", "values": [
      {"measurement": "IC50", "setting": "TAK1-TAB1", "result": "≤ 1000", "unit": "nM"},
      {"measurement": "IC50", "setting": "[1]", "result": "> 1000", "unit": "nM"}
    ]},
    {"smiles": "C[C@@H](O)C(=O)N1CCN(c2cnc3[nH]cc(/C=C/C(N)=O)c3c2)CC1", "note": "[Example 277, (R,E)-3-(5-(4-(2-hydroxypropanoyl)piperazin-1-yl)-1H-pyrrolo[2,3-b]pyridine-3-yl)acrylamide]", "values": [
      {"measurement": "IC50", "setting": "TAK1-TAB1", "result": "≤ 1000", "unit": "nM"},
      {"measurement": "IC50", "setting": "[1]", "result": "> 1000", "unit": "nM"}
    ]},
    {"smiles": "CC(C)(O)c1cccc(-c2cnc3[nH]cc(/C=C/C(N)=O)c3c2)c1", "note": "[Example 246, (E)-3-(5-(3-(2-hydroxypropan-2-yl)phenyl)-1H-pyrrolo[2,3-b]pyridin-3-yl)acrylamide]", "values": [
      {"measurement": "IC50", "setting": "TAK1-TAB1", "result": "≤ 1000", "unit": "nM"},
      {"measurement": "IC50", "setting": "[1]", "result": "≤ 1000", "unit": "nM"}
    ]},
    {"smiles": "NC(=O)/C=C/c1c[nH]c2ncc(Cc3ccc(F)cc3F)cc12", "note": "[Example 275, (E)-3-(5-(2,4-difluorobenzyl)-1H-pyrrolo[2,3-b]pyridin-3-yl)acrylamide]", "values": [
      {"measurement": "IC50", "setting": "TAK1-TAB1", "result": "≤ 1000", "unit": "nM"},
      {"measurement": "IC50", "setting": "[1]", "result": "≤ 1000", "unit": "nM"}
    ]}
  ]
}
